Test results from ChEMBL document CHEMBL4385619, “Identification of topoisomerases as molecular targets of cytosporolide C and its analog” (Bioorg Med Chem, 2019).
Calls of active or inactive are those of the source. The calls are words filed in the database; no cut-off is given here.

Legend:
[1] = target: T1, DNA topoisomerase 1 (Escherichia coli (strain K12)) (UniProt P06612); assay: Inhibition of Escherichia coli topoisomerase 1 mediated DNA relaxation at 10 uM using plasmid pMT-puro DNA as substrate after 30 mins by ethidium bromide staining-based agarose gel electrophoresis method
T1 sequence (whole entry): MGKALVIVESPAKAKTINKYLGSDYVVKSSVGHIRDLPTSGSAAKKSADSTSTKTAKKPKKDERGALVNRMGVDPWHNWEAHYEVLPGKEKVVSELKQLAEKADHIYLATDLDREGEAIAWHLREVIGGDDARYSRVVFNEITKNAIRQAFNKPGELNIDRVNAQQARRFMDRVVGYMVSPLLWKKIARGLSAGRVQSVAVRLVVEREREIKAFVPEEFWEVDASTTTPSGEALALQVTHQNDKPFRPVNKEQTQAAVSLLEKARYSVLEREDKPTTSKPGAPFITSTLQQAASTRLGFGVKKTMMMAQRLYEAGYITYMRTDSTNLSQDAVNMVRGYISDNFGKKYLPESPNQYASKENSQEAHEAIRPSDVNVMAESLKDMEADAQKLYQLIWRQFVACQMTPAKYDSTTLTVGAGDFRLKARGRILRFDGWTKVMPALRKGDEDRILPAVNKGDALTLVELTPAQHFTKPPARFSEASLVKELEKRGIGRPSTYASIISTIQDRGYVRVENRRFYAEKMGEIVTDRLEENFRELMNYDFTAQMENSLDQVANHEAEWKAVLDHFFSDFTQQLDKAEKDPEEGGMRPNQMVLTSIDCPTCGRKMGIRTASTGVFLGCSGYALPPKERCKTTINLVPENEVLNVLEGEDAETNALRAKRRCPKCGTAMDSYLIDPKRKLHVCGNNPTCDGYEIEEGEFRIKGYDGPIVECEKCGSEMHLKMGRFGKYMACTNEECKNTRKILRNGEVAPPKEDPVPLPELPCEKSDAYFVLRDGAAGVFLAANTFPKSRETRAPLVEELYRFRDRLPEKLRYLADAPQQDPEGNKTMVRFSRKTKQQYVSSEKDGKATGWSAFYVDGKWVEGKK

MCF7 = assay: Antiproliferative activity against human MCF7 cells assessed as reduction in cell viability measured after 72 hrs by MTT assay; type: functional, cell-based; conditions: MCF7, 72 h
HCT-116 = assay: Antiproliferative activity against human HCT116 cells assessed as reduction in cell viability measured after 72 hrs by MTT assay; type: functional, cell-based; conditions: HCT-116, 72 h
A549 = assay: Antiproliferative activity against human A549 cells assessed as reduction in cell viability measured after 72 hrs by MTT assay; type: functional, cell-based; conditions: A549, 72 h
[2] = target: DNA topoisomerase 2-alpha (Homo sapiens) (UniProt P11388); assay: Inhibition of human DNA topoisomerase 2 mediated decatenation at 10 uM using kDNA as substrate after 30 mins by ethidium bromide staining-based agarose gel electrophoresis method
Sequence of DNA topoisomerase 2-alpha (Homo sapiens) (P11388 whole entry): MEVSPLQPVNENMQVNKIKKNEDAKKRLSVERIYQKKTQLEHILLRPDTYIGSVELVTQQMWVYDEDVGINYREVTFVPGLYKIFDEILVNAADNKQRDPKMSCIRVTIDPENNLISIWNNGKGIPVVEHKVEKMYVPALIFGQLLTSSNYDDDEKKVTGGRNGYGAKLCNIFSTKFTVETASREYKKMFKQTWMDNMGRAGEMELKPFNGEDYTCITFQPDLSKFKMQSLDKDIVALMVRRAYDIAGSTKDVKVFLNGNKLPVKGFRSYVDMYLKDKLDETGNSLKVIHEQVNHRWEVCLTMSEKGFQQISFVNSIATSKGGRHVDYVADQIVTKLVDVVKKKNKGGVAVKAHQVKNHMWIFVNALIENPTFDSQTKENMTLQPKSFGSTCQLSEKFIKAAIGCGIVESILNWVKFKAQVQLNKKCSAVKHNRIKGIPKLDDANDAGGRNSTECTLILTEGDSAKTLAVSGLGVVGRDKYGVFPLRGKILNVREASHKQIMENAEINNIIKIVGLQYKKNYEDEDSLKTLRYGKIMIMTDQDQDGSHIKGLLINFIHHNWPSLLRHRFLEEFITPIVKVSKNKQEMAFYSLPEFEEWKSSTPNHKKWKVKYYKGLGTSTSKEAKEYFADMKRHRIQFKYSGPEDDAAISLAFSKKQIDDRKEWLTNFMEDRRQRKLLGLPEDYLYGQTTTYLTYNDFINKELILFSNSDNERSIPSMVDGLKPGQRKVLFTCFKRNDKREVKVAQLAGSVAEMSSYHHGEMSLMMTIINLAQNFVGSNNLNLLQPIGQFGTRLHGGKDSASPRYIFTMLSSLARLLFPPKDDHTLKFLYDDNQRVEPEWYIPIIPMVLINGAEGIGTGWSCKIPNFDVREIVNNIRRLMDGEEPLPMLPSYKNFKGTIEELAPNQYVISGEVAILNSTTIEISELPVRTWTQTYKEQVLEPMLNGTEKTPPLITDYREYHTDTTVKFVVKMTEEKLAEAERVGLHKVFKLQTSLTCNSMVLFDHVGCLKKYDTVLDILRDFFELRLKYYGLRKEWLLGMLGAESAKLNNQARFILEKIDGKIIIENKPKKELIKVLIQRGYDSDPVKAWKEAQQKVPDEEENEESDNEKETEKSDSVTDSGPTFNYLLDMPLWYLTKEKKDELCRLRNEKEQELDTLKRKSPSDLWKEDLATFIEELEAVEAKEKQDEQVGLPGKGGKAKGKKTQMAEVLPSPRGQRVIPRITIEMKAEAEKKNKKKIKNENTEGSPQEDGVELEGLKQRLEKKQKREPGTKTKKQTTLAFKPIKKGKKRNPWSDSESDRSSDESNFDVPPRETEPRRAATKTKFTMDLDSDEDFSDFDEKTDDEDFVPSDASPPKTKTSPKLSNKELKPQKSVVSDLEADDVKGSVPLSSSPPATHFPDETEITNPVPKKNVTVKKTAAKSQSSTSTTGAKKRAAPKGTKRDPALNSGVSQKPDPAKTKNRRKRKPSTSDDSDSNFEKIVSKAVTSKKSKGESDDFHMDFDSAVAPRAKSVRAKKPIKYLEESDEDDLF

[3] = target: T1, DNA topoisomerase 1 (Escherichia coli (strain K12)); assay: Inhibition of Escherichia coli topoisomerase 1 mediated DNA relaxation using plasmid pMT-puro DNA as substrate after 30 mins by ethidium bromide staining-based agarose gel electrophoresis method
[4] = target: T1, DNA topoisomerase 1 (Escherichia coli (strain K12)); assay: Inhibition of Escherichia coli topoisomerase 1 mediated DNA relaxation at 1 uM using plasmid pMT-puro DNA as substrate after 30 mins by ethidium bromide staining-based agarose gel electrophoresis method

Row | SMILES | inhibition [1] | IC50 (MCF7) [µM] | IC50 (HCT-116) [µM] | IC50 (A549) [µM] | inhibition [2] | inhibition [3] | inhibition [4]
1 | CO[C@@H]1/C=C(\C)C[C@H](O)[C@]2(O)[C@H](CC2(C)C)/C(CO)=C\1 | inactive | > 10 | > 10 | > 10 | inactive |  | 
2 | C=C1CC[C@@H]2[C@H]3O[C@H](CCCCCCC)Cc4cc(O)c(C(=O)O)c(c43)O[C@@]2(C)CC[C@@H]2[C@@H]1CC2(C)C | Active | 7.28 | 3.91 | 5.01 | Active | Dose-dependent effect | 
3 | CCCCCCC[C@@H]1Cc2cc(O)c(C(=O)O)c3c2[C@H](O1)[C@H]1[C@@H](OC)/C=C(/COC(C)=O)[C@H]2CC(C)(C)[C@]2(O)[C@@H](OC(C)=O)C[C@]1(C)O3 | inactive | > 10 | > 10 | > 10 | inactive |  | 
4 | CO[C@@H]1/C=C(\C)C[C@H](OC(C)=O)[C@]2(O)[C@H](CC2(C)C)/C(COC(C)=O)=C\1 | inactive | > 10 | > 10 | > 10 | inactive |  | 
5 | CCCCCCC[C@@H]1Cc2cc(O)c(C(=O)O)c3c2[C@H](O1)[C@H]1[C@@H](OC)/C=C(/CO)[C@H]2CC(C)(C)[C@]2(O)[C@@H](O)C[C@]1(C)O3 | inactive | > 10 | > 10 | > 10 | inactive |  | 
6 | CCCCCCC[C@@H]1Cc2cc(O)c(C(=O)O)c(O)c2[C@H](O)O1 | inactive | > 10 | > 10 | > 10 | Active |  | 
7 | C[C@H]([C@H](C)N1CC(=O)NC(=O)C1)N1CC(=O)NC(=O)C1 |  |  |  |  | Active |  | 
8 | CCCCCCC[C@@H]1Cc2cc(O)c(C(=O)O)c3c2[C@H](O1)[C@H]1[C@@H](OC)/C=C(/COC(C)=O)[C@H]2CC(C)(C)[C@]2(O)[C@@H](O)C[C@]1(C)O3 | Active | 8.88 | 5.98 | 6.31 | inactive |  | 
9 | CC[C@@]1(O)C(=O)OCc2c1cc1n(c2=O)Cc2cc3ccccc3nc2-1 |  |  |  |  |  |  | Active
